Like-named read-outs stand apart in the source and are kept apart here.
Legend:
[1] = system: human colon carcinoma (HT-29); assay: MTT assay, in vitro cell viability, HT-29; format: cell-based; details: ± standard deviation
Description: (§1) To study the ability of the prepared ligands and the synthesized complexes in retarding the growth of cancer cell, the MTT assay was performed with human cervical carcinoma (HeLa), human colon carcinoma (HT-29), and non-cancerous L929 (fibroblast) cell lines. As a reference, cisplatin is also examined with all the cell lines for an incubation period of 24 h and as stated in Table 1.
(§2) 2. Experimental Procedures […]
(§3) The cell lines HeLa, HT-29, and L929 were collected from ATCC and the stock cells were cultured in DMEM/ F12 enriched with 10% inactivated Fetal Bovine Serum (FBS), penicillin (100 IU/ml), streptomycin (100 µg/ml) in a humidified atmosphere of 5% carbon dioxide at 37 °C until confluent. The cells were dissociated with cell dissociating solution (0.2 % trypsin, 0.02 % EDTA, 0.05 % glucose in PBS). The viability of the cells have been checked and centrifuged. Further, 50,000 cells /well of […] was seeded in a 96 well plate and incubated for 24 hours at 37 °C, 5 % carbon dioxide incubator.
(§4) The monolayer cell culture has been trypsinized and the cell count was altered to […] using respective media comprising 10% FBS. 100 µL of the diluted cell suspension (50,000 cells/well) was added to each well of the 96 well microtiter plate. When a partial monolayer formed after 24 hours, the supernatant was swiped off and the monolayer has been washed with the medium. 100 µL of various concentrations of complexes have been added on to the partial monolayer in microtiter plates. Then, the […]
(§5) incubation, the test solutions in the wells have been discarded and 100 µL of MTT (5 mg/10 ml of MTT in PBS) was added to each well. The plates have been incubated for four hours at 37 °C in 5% carbon dioxide atmosphere. The supernatant has been removed and 100 µL of DMSO was applied to dissolve the formed formazan. The absorbance was recorded using a microplate reader at 590 nm. The % growth inhibition has been determined using the […]
(§6) Cell viability (%) = (Absorbance of each well/ Absorbance of control well) × 100 […]
(§7) Hoechst 33342 staining method
(§8) 5 × 10^5 HeLa cells have been incubated with IC50 concentration of the complex 4 for 24 hours in a 6-well culture plate and have been fixed with 4% paraformaldehyde followed by permeabilization with 0.1% Triton X-100. Cells were then stained with 50 μg /mL Hoechst 33342 for 30 min at ambient temperature. The cells undergoing apoptosis were observed and visualized by epifluorescence microscope (Carl Zeiss, Germany).

[2] = system: non-cancerous L929 (fibroblast) cell lines; assay: MTT assay, in vitro cell viability, L929; format: cell-based; details: ± standard deviation
Description: as §1, §2, §3, §4, §5, §6, §7, §8

[3] = system: human cervical carcinoma (HeLa); assay: MTT assay, in vitro cell viability, HeLa; format: cell-based; details: ± standard deviation
Description: as §1, §2, §3, §4, §5, §6, §7, §8

[4] = Partition coefficient (log P), shake-flask, n-octanol-water; format: physicochemical
Source text: The permeability of the drug molecules into a lipid cytomembrane is a prime initiative for designing drugs and its development. The main properties like absorption, transportation, and expulsion of the drugs take control over the chief pharmacokinetic properties. Accordingly, we resolve the permeability of all the complexes with the help of calculated log P values using a n-octanol–water system. Based on the solubility of the complexes in aqueous and organic phases, the log P values are determined.[22]−[24] […] Complexes 3 and 4 display higher permeability characters (log P value) due to the presence of halogen and electron-donating group, respectively. Additionally, the presence of the carbazole moiety in the complexes enhanced the lipophilicity.[25],[26]
2. Experimental Procedures
UV-visible time dependent spectral method has been used to examine the stability of the complexes. Complexes were dissolved in a minimum amount of 1% DMSO and then diluted with PBS buffer to 1×10−3 M concentration. The hydrolysis profiles of the complexes were monitored by their electronic spectra over 72 h.
Partition coefficients determination
The "shake-flask" technique was used to evaluate the lipophilicity of complexes 2 - 4 using octanol/water phase partitions. Double distilled water and analytical grade octanol (Sigma Aldrich) were used to produce octanol-saturated water and water-saturated octanol phases. Complexes 2−4 (1 mg/mL; ethanol/water) have been diluted to 2, 4, 6, 8, and 10 μg/mL in water and alternatively were diluted to 2, 4, 6, 8, and 10 μg/mL in octanol, respectively. Equal volumes (50/50) of the complexes in the proper concentrations […] have been shaken for 24 hours at ambient temperature. The organic and aqueous fractions have been separated and centrifuged when equilibrium was attained. Finally, UV-visible spectroscopy was used to determine the complex concentration in each phase. The concentration of the sample solution was used to calculate the partition coefficients (log P) by using the equation log P = log[(1−3)oct/(1−3)aq]. 4 […]

[5] = system: HeLa cancer cells; assay: ROS detection (DCFH-DA); format: cell-based, human; details: IC50 concentration, 24 h, control 20 %
Source text: ROS, like hydrogen peroxide, superoxide anion, and hydroxyl radical, are produced on mitochondrial oxidative metabolism along with cell’s reaction toward cytokines and bacterial invasion. At low levels of ROS, it could participate in cell signaling. Whereas, at higher levels they might damage (DNA and RNA) and engage in apoptosis via mitochondrial dysfunction.[32] The quantity of ROS is detected with the help of oxidant fluorescent dye. The nonpolar dye DCFH-DA turned out to be deacetylated and transformed into DCFH (polar) by intracellular esterases. However, DCFH is not identified using a microscope. […]
(§9) To quantify the intracellular ROS, 5 × 10^5 HeLa cells have been seeded on a 6-well plate comprising cover slip and incubated overnight for attachment. […]
(§10) Culture cells on cover slips in 6‐well cell culture plates at a density around 5 x 10^5 cells/mL overnight in an incubator (5% carbon dioxide, 37 °C). […] The cells were immediately examined under a fluorescent microscope (Olympus, CKX-53, Japan), and the proportion of dead cells was calculated in at least three randomly chosen microscopic fields. […]
(§11) HeLa ells have been seeded in a 6-well plate (10^5 cells/well)) and cultured at 37 °C for 24 hours. […] Finally, apoptosis induction has been assessed using a flow cytometer (SYSMEX, Japan), and the data have been analyzed by Flow Jo software. […]

[6] = system: caspase-8; assay: Caspase activity assay, caspase-8 in HeLa cells; format: cell-based, human; details: IC50 concentration, 12 and 24 h
Source text: (§12) The apoptotic mode of cancer cell death was further substantiated by caspase activation by ELISA analysis. In eukaryotes, caspases(protease enzymes) play a significant role in induction, transduction, and amplification of intracellular apoptotic signals. Based on the amino acid composition, caspases are divided into three sub-families, namely, […], executioner, and mediator caspases.[37] Most importantly, the initiator and executioner caspases get involved in the apoptotic signaling cascade. Caspase-8 and -9 are the initiators of the extrinsic and intrinsic pathways of apoptosis, respectively. Both mechanisms converge in the activation of the executioner caspase-3.[38]
(§13) Reactive Oxygen Species (ROS) Assay
as §9, §10
(§14) The caspase activity assay was determined by a chromogenic assay using caspase-3 (Calbiochem, Merck), caspase-8 and 9 (Chemicon International Inc.) colorimeter activity assay kits. […]

[7] = system: caspase-9; assay: Caspase activity assay, caspase-9 in HeLa cells; format: cell-based, human; details: IC50 concentration, 12 and 24 h
Source text: as §12, §13, §9, §10, §14

[8] = system: caspase-3; assay: Caspase activity assay, caspase-3 in HeLa cells; format: cell-based, human; details: IC50 concentration, 12 and 24 h
Source text: as §12, §13, §9, §10, §14

[9] = system: HeLa cancer cells; assay: Mitochondrial membrane potential, JC-1 staining; format: cell-based, human; details: IC50 concentration, 24 h
Description: The mitochondrial dysfunction-mediated apoptosis was assayed via ROS generation. After the mitochondrial impairment, the mitochondrial membrane potential (MMP) is reduced and the same was examined using JC-1 fluorescence dye. The dye is used to assay the MMP to determine mitochondrial viability. Proapoptotic factors and other apoptotic inducing features were produced by mitochondria, which serves to be a significant role for apoptosis. […] In the control group (Figure 7A), JC-1 accumulates and produces a red fluorescence correlating to a high MMP.
as §13, §9, §10, §11

[10] = Homo sapiens, HT-29, 24 h incubation, read-out: IC50 HT-29 24 h
[11] = Homo sapiens, HT-29, 48 h incubation, read-out: IC50 HT-29 48 h
[12] = Mus musculus, L929, 24 h incubation, read-out: IC50 L929 24 h
[13] = Mus musculus, L929, 48 h incubation, read-out: IC50 L929 48 h
[14] = Homo sapiens, HeLa, 24 h incubation, read-out: IC50 HeLa 24 h
[15] = Homo sapiens, HeLa, 48 h incubation, read-out: IC50 HeLa 48 h
[16] = 24 h incubation, read-out: IC50 HT-29 24 h
[17] = 48 h incubation, read-out: IC50 HT-29 48 h
[18] = 24 h incubation, read-out: IC50 L929 24 h
[19] = 48 h incubation, read-out: IC50 L929 48 h
[20] = 24 h incubation, read-out: IC50 HeLa 24 h
[21] = 48 h incubation, read-out: IC50 HeLa 48 h
[22] = n-octanol-water system, shake-flask, UV-visible

IC50 [1, 10] [µM] | IC50 [1, 11] [µM] | IC50 [3, 14] [µM] | IC50 [3, 15] [µM] | log P [4] | SMILES | IC50 [2, 12] [µM] | IC50 [2, 13] [µM] | IC50 [1, 16] [µM] | IC50 [1, 17] [µM] | IC50 [2, 18] [µM] | IC50 [2, 19] [µM] | IC50 [3, 20] [µM] | IC50 [3, 21] [µM] | log P [4, 22] | % of fluorescence intensity, reactive oxygen species (DCFH-DA) [5] [%] | Expression of caspase-8 [6] | Caspase-9 activity versus control cells [7] | Caspase-3 activity versus control cells [8] | Mitochondrial membrane potential (JC-1 fluorescence) [9]
> 100 | > 100 | > 100 | > 100 |  | O=C(N/N=C1/CCCc2c1[nH]c1ccccc21)c1ccccc1 [L1] | > 100 | > 100 |  |  |  |  |  |  |  |  |  |  |  | 
> 100 | 94 ± 1.27 | > 100 | 86.2 ± 1.12 |  | O=C(N/N=C1/CCCc2c1[nH]c1ccccc21)c1ccc(Cl)cc1 [L2] | > 100 | > 100 |  |  |  |  |  |  |  |  |  |  |  | 
> 100 | 81.7 ± 1.09 | > 100 | 73.4 ± 0.82 |  | COc1ccc(C(=O)N/N=C2/CCCc3c2[nH]c2ccccc32)cc1 [L3] | > 100 | > 100 |  |  |  |  |  |  |  |  |  |  |  | 
 |  |  |  |  | N.N.[Cl][Pt][Cl] [cisplatin, reference compound] |  |  | 34.3 ± 1.45 | 14.3 ± 1.57 | 146.5 ± 0.79 | 141.2 ± 0.37 | 28.04 ± 0.18 | 12.4 ± 1.81 |  |  |  |  |  | 
 |  |  |  |  | c1ccc(C(=NN=C2CCCc3c2[nH]c2ccccc32)[O][Ni][O]C(=NN=C2CCCc3c2[nH]c2ccccc32)c2ccccc2)cc1 [complex 2, [Ni(L1)2]] |  |  | 68.59 ± 0.27 | 61.25 ± 0.47 | 248.1 ± 1.12 | 236.3 ± 1.45 | 49.3 ± 1.05 | 40.12 ± 0.09 | 0.86 ± 0.14 |  |  |  |  | 
 |  |  |  | 1.57 ± 0.12 | Clc1ccc(C(=NN=C2CCCc3c2[nH]c2ccccc32)[O][Ni][O]C(=NN=C2CCCc3c2[nH]c2ccccc32)c2ccc(Cl)cc2)cc1 [complex 3, [Ni(L2)2]] |  |  | 59.2 ± 0.64 | 50.8 ± 1.11 | 253.1 ± 0.61 | 247.4 ± 0.28 | 45.4 ± 0.72 | 32.8 ± 1.19 |  |  |  |  |  | 
 |  |  |  |  | COc1ccc(C(=NN=C2CCCc3c2[nH]c2ccccc32)[O][Ni][O]C(=NN=C2CCCc3c2[nH]c2ccccc32)c2ccc(OC)cc2)cc1 [complex 4, [Ni(L3)2]] |  |  | 57.42 ± 0.09 | 41.2 ± 1.28 | 275.8 ± 0.35 | 269.1 ± 1.1 | 43.39 ± 0.21 | 28.2 ± 0.32 | 1.95 ± 0.05 | 80 | efficiently upregulated | time-dependent increase | time-dependent increase | decrease in MMP

From paper PMC10077545, “Exploration of Antiproliferative Activity and Apoptosis Induction of New Nickel(II) Complexes Encompassing Carbazole Ligands” (ACS Omega, 2023)
